Assay results reported in patent publication US6613781B2, “Heterocyclylaklylindole or -azaindole compounds as 5-hydroxytryptamine-6 ligands” (Wyeth, priority 2000, dated 2003).
Counter-ions that a name gives are not always drawn.

test system: not given; assay: not given; details: not given

melting point [°C] | Structure (SMILES)
246 | COc1ccc(S(=O)(=O)n2cc(CC3CCNCC3)c3cc(F)ccc32)cc1OC (as salt: hydrochloride) [Example 18, 1-[(3,4-dimethoxyphenyl)sulfonyl]-5-fluoro-3-(piperidin-4-ylmethyl)-1H-indole]
249 | N#Cc1ccc(S(=O)(=O)n2cc(CC3CCNCC3)c3cc(F)ccc32)cc1 (as salt: hydrochloride) [Example 19, 4-{[5-fluoro-3-(piperidin-4-ylmethyl)-1H-indol-1-yl]sulfonyl}benzonitrile]
245 | O=S(=O)(c1cccc2cccnc12)n1cc(CC2CCNCC2)c2cc(F)ccc21 (as salt: hydrochloride) [Example 20, 8-{[5-fluoro-3-(piperidin-4-ylmethyl)-1H-indol-1-yl]sulfonyl}quinoline]
198 to 200 | Nc1ccc(S(=O)(=O)n2cc(CC3CCNCC3)c3ccc(F)cc32)cc1 (as salt: hydrochloride) [Example 28]

molecular target: T1, human cloned 5-HT6 receptors (Homo sapiens, UniProt P50406); assay: Comparative evaluation of 5-HT6 binding affinity ([3H]-LSD displacement, Hela cell membranes); details: not given
T1 construct: expressed in transfected cells; host or cells: Hela cells
Method: The affinity of test compounds for the serotonin 5-HT6 receptor is evaluated in the following manner. Cultured Hela cells expressing human cloned 5-HT6 receptors are harvested and centrifuged at low speed (1,000×g) for 10.0 min to remove the culture media. The harvested cells are suspended in half volume of fresh physiological phosphate buffered saline solution and recentrifuged at the same speed. This operation is repeated. The collected cells are then homogenized in ten volumes of 50 mM Tris.HCl (pH 7.4) and 0.5 mM EDTA. The homogenate is centrifuged at 40,000×g for 30.0 min and the precipitate is collected. The obtained pellet is resuspended in 10 volumes of Tris.HCl buffer and recentrifuged at the same speed. The final pellet is suspended in a small volume of Tris.HCl buffer and the tissue protein content is determined in aliquots of 10-25 μl volumes. Bovine Serum Albumin is used as the standard in the protein determination according to the method described in Lowry et al., J. Biol. Chem., 193:265 (1951). The volume of the suspended cell membranes is adjusted to give a tissue protein concentration of 1.0 mg/ml of suspension. The prepared membrane suspension (10 times concentrated) is aliquoted in 1.0 ml volumes and stored at −70° C. until used in subsequent binding experiments.
Binding experiments are performed in a 96 well microtiter plate format, in a total volume of 200 μl. […] The test compounds are added in 20.0 μl volume.
The reaction is allowed to proceed in the dark for 120 min at room temperature, at which time, the bound ligand-receptor complex is filtered off on a 96 well unifilter with a Packard Filtermate® 196 Harvester. The bound complex caught on the filter disk is allowed to air dry and the radioactivity is measured in a Packard TopCount® equipped with six photomultiplier detectors, after the addition of 40.0 μl Microscint®-20 scintillant to each shallow well. The unifilter plate is heat-sealed and counted in a PackardTopCount® with a tritium efficiency of 31.0%.
Binding in the presence of varying concentrations of test compound is expressed as a percentage of specific binding in the absence of test compound. The results are plotted as log % bound versus log concentration of test compound. […] A linear regression line of data points is plotted, from which the IC50 value is determined and the Ki value is determined based upon the following equation: […]
where L is the concentration of the radioactive ligand used and KD is the dissociation constant of the ligand for the receptor, both expressed in nM.

T1 sequence (P50406 whole entry): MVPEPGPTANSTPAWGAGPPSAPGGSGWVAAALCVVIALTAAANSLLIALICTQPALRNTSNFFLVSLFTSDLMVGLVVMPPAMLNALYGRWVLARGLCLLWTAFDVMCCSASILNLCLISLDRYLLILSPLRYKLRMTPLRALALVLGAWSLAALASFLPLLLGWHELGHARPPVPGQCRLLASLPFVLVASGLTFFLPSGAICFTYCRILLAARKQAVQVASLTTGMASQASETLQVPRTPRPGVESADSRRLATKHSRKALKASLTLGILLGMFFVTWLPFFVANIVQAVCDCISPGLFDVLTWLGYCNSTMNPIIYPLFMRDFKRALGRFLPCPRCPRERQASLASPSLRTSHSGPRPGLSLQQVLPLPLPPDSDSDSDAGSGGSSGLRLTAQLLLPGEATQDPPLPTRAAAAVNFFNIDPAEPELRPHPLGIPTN

Structure (SMILES) | Ki [nM]
CC(C)C[C@H]1C(=O)N2CCC[C@H]2[C@]2(O)O[C@](NC(=O)[C@@H]3C=C4c5cccc6[nH]c(Br)c(c56)C[C@H]4N(C)C3)(C(C)C)C(=O)N12 [Bromocriptine, reference compound] | 23

same assay, conditions: [3H]-LSD 3.0 nM; membranes of Hela cells expressing human cloned 5-HT6 receptors; 120 min, room temperature; read-out: 5-HT6 Binding Ki

Structure (SMILES) | Ki [nM]
O=S(=O)(c1cccc(F)c1)n1cc(CC2CCNCC2)c2ccc(F)cc21 [Example 27, 6-flouro-1-(3-fluorophenylsulfonyl)-3-(4-piperidinylmethyl)-1H-indole] | 29
COc1ccc(S(=O)(=O)n2cc(CC3CCNCC3)c3ccc(F)cc32)cc1OC [Example 23, 6-flouro-1-(3,4-dimethoxyphenylsulfonyl)-3-(4-piperidinylmethyl)-1H-indole] | 19
O=S(=O)(c1ccccc1F)n1cc(CC2CCNCC2)c2ccc(F)cc21 [Example 26, 6-flouro-1-(2-fluorophenylsulfonyl)-3-(4-piperidinylmethyl)-1H-indole] | 17
O=S(=O)(c1cccc2ccccc12)n1cc(CC2CCNCC2)c2ccc(F)cc21 [Example 22, 6-flouro-1-(1-naphthylsulfonyl)-3-(4-piperidinylmethyl)-1H-indole] | 24
O=S(=O)(c1ccccc1Cl)n1cc(CC2CCNCC2)c2ccc(F)cc21 [Example 24, 6-flouro-1-(2-chlorophenylsulfonyl)-3-(4-piperidinylmethyl)-1H-indole] | 13
O=S(=O)(c1ccc(Cl)s1)n1cc(CC2CCNCC2)c2ccc(F)cc21 [Example 25, 6-flouro-1-(5-chlorothien-2-ylsulfonyl)-3-(4-piperidinylmethyl)-1H-indole] | 18
CN1CCN(C2=Nc3ccccc3Oc3ccc(Cl)cc32)CC1 [Loxapine, reference compound] | 41.4
O=S(=O)(c1ccccc1)n1cc(CC2CCNCC2)c2ccc(F)cc21 [Example 21, 6-flouro-1-(phenylsulfonyl)-3-(4-piperidinylmethyl)-1H-indole] | 13

Further lines, results first:

Ki [nM] | Structure (SMILES)
2 | O=S(=O)(c1cccc2cccnc12)n1cc(CC2CCNCC2)c2cc(F)ccc21 [Example 20, 8-{[5-fluoro-3-(piperidin-4-ylmethyl)-1H-indol-1-yl]sulfonyl}quinoline]
1 | Nc1ccc(S(=O)(=O)n2cc(CC3CCNCC3)c3cc(F)ccc32)cc1 [Example 7, 4-{[5-Fluoro-3-(4-piperidinylmethyl)-1H-indole-1-yl]sulfonyl}aniline]
8 | COc1ccc(S(=O)(=O)n2cc(CC3CCNCC3)c3cc(F)ccc32)cc1OC [Example 18, 1-[(3,4-dimethoxyphenyl)sulfonyl]-5-fluoro-3-(piperidin-4-ylmethyl)-1H-indole]
162 | N#Cc1ccc(S(=O)(=O)n2cc(CC3CCNCC3)c3cc(F)ccc32)cc1 [Example 19, 4-{[5-fluoro-3-(piperidin-4-ylmethyl)-1H-indol-1-yl]sulfonyl}benzonitrile]
12 | O=S(=O)(c1ccccc1)n1cc(CC2CCNCC2)c2cc(F)ccc21 [Example 6, 5-Fluoro-1-phenylsulfonyl)-3-(4-piperidinylmethyl)-1H-indole hydrochloride]
13 | O=S(=O)(c1cccc2ccccc12)n1cc(CC2CCNCC2)c2cc(F)ccc21 [Example 10, 5-Fluoro-1-(1-naphthylsulfonyl)-3-(4-piperidinylmethyl)-1H-indole hydrochloride]
3 | Nc1ccc(S(=O)(=O)n2cc(CC3CCNCC3)c3ccc(F)cc32)cc1 [Example 28]
